Experimental data as given in patent publication US10934304B2, “Spirocyclic compounds” (Recurium IP Holdings, LLC, priority 2016, dated 2021).

How the values were obtained:
[1] = tested on: A375 (melanoma) cells; test: Proliferation Assay (CellTiter-Glo); type: cell-based; settings: 3 days incubation, CellTiter-Glo luminescence
Outline: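 A375 cells in RPMI-1640 with 10% FBS, plated overnight, then exposed to 10-point 3-fold serial compound dilutions for 3 days at 37° C, 5% CO2. Viability read by CellTiter-Glo luminescence.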

[2] = biological target: ERK2 (Homo sapiens (Human), UniProt P28482); test: Active ERK1 and ERK2 Kinase Assay (Mobility Shift Assay); type: biochemical; settings: activated ERK2, Mobility Shift Assay
Outline: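 Mobility shift assay: compound preincubated with activated kinase 30 min at rt in 20 mM HEPES pH 7.5, 0.01% Triton X-100, 2 mM DTT. Reaction started with fluorescent substrate, ATP and metal, run 1 h at rt; activity taken as product ratio P/(P+S) after LabChip peptide separation.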

ERK2, sequence (P28482 whole entry): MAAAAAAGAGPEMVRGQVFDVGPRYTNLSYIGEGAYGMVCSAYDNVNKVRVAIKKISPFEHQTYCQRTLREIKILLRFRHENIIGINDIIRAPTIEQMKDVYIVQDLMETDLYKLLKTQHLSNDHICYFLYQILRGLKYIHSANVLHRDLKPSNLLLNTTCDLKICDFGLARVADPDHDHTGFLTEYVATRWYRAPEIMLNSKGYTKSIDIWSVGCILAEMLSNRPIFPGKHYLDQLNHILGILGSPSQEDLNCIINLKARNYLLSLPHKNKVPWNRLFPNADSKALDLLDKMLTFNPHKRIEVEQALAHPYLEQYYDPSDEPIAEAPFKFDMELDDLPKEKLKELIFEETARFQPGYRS

Row | Compound | IC50 [1] [nM] | IC50 [2] [nM] | IC50 ([1]; Homo sapiens, A-375, 72 h) [nM]
1 | Cn1cnc(-c2ccc(C3=CCN(C(=O)CN4CC[C@]5(CCN(c6ccc7[nH]nc(-c8ccc(F)cn8)c7c6)C5=O)C4)CC3)s2)n1 [Example 55] | ≤ 500 | ≤ 50 | –
2 | C[C@@H]1CN(c2n[nH]c3ccc(N4CC[C@]5(CCN(CC(=O)N6CC=C(c7ccc(-c8ncn(C)n8)cc7)CC6)C5)C4=O)nc23)C[C@H](C)O1 [Example 48] | 500 to 1000 | ≤ 50 | –
3 | CC(C)Oc1ccc(-c2n[nH]c3ccc(N4CC[C@]5(CCN(CC(=O)N6CCN(c7ccc(-c8ncn(C)n8)cn7)CC6)C5)C4=O)nc23)cn1 [Example 84] | ≤ 500 | ≤ 50 | –
4 | Cn1cnc(-c2cnc(C3=CCN(C(=O)CN4CC[C@]5(CCN(c6ccc7[nH]nc(C8CCOCC8)c7n6)C5=O)C4)CC3)s2)n1 [Example 34] | – | ≤ 50 | ≤ 500
